Results from PMC10303059, “Chloroquine and Hydroxychloroquine, as Proteasome Inhibitors, Upregulate the Expression and Activity of Organic Anion Transporter 3” (Pharmaceutics, 2023).

Test system: T1, 20S proteasome
T1 construct: gene PSMB5; endogenous proteasome of COS-7 cells expressing OAT3; with Proteasome subunit beta type-6; Proteasome subunit beta type-7; Proteasome subunit beta type-1; Proteasome subunit beta type-2; Proteasome subunit beta type-3; Proteasome subunit beta type-4; Proteasome subunit alpha type-1; Proteasome subunit alpha type-2; Proteasome subunit alpha type-3; Proteasome subunit alpha type-4; Proteasome subunit alpha type-5; Proteasome subunit alpha type-6; Proteasome subunit alpha type-7
Assay: […] proteasome assay kit (fluorescence) after treatment of intact cells
Format: cell-based
Details: OAT3-expressing COS-7 cells treated 4 h; range over 10-100 µM; direct binding not shown

Structure (SMILES): CCN(CCO)CCCC(C)Nc1ccnc2cc(Cl)ccc12 (stereo not shown) [Hydroxychloroquine]
- % inhibition at 10-100 μM: 23–61%
